The text below walks through data of US7582653B2, “Mercaptophenyl naphthyl methane compounds and synthesis thereof” (Council of Scientific & Industrial Research, priority 2003, dated 2009).

The structures appear in SMILES notation. A value given as a limit tells only on which side of the number the result lay.

Data set [1] relates to ovariectomized (OVX) female Sprague-Dawley rats. As to the kind of experiment: Antiosteoporosis activity in vivo: bone mineral density in ovariectomized rats. On the set-up: species or system rat. To be noted: oral once daily days 1-30 post-ovariectomy. On the procedure: Test Procedure for Evaluation of Antiosteoporosis Activity in Vivo:
(§1) The in vivo antiosteoporosis activity is evaluated in colony-bred adult (3-4 month old) female Sprague-Dawley rats or female retired breeder Sprague-Dawley rats ([…]; parity≧3). Animals are bilaterally ovariectomized (OVX) under light ether anesthesia and treated with the compound of the present invention, 17-alfa-ethynylestradiol (EE) or the vehicle once daily on days 1-30 post-ovariectomy (day 1: day of bilateral ovariectomy) by the oral route. One group consisting of females is sham operated and treated similarly with the vehicle. Animals of all the groups are autopsied 24 h after the last treatment. Before autopsy, 24 h fasting urine samples are collected in fresh containers using all-glass metabolic cages and stored at −20° C. until analyzed for calcium, phosphorus and creatinine. At autopsy, about 5 ml blood samples are collected by cardiac puncture from each rat under light ether anesthesia and serum is isolated and stored at −20° C. until analyzed for total and bone specific alkaline phosphatase, osteocalcin and calcium. Uterus of each rat is carefully excised, gently blotted, weighed and fixed for histology. Representative sections (5 μm) from each uterus are stained with haematoxylin and eosin. Femur and tibia of each rat are then dissected free of adhering tissue, fixed in 70% ethanol in physiological saline and stored at −20° C. until Bone Mineral Density (BMD) measurement. Before autopsy, whole body scan of each rat for measurement of BMD is performed on an Hologic QDR-4500A fan-beam densitometer, calibrated daily with Hologic hydroxyapatite anthropomorphic spine phantom using manufacturer provided software for small animals. BMD measurement of isolated bones is performed using identical regions of interest. Serum total alkaline phosphatase, osteocalcin, calcium ion content and urinary calcium and creatinine are estimated colorimetrically using commercial kits (Table 2).

The test system of another data set is retired breeder OVX rats. As to the kind of experiment: Estrogen agonistic activity: uterine weight and morphometry in retired breeder OVX rats. The data set is classed as in vivo, rat. As for the experimental part:
as §1
(§2) For image analysis in estrogen agonistic activity evaluation studies, paraffin sections (6 μm thick) of the uterus stained with haematoxylin and eosin were analyzed microscopically. To determine changes in uterine tissue components, areas of whole uterus and endometrium and the thickness of uterine epithelium were measured using a computer-image analysis system (BioVis, Expert Vision, India). Briefly, microscopic images of uterus acquired through a CCD camera were loaded in to the image analysis program and spatially calibrated against a stage micrometer image taken at the same magnification. Using thresholding and line tools, the regions for measurements were selected and the area (mm^2) of whole uterine transection excluding the luminal space, the area (mm^2) of the endometrium only, and the thickness (μm) of luminal epithelial lining were measured. Luminal epithelial thickness data was the average of measurements made at 6 randomly selected sites of the lining (Table 7).

Data set [2] relates to immature OVX rats. The experiment in a line: Estrogen agonistic activity: uterine weight and morphometry in immature OVX rats. The data set is classed as in vivo, rat. On the procedure: Test Procedure for Evaluation of Estrogen Agonistic Activity:
Twenty-one-day-old immature female rats are bilaterally ovariectomized under light ether anesthesia and, after post-operative rest for 7 days, are randomized into different treatment groups. Each rat receives the compound of the invention once daily for 3 consecutive days on days 28-30 of age. A separate group consisting of animals receiving only the vehicle for similar duration serves as control. At autopsy 24 h after the last treatment on day 31 of age, vaginal smear of each rat is taken and uterus is carefully excised, gently blotted, weighed and fixed for histology and histomorphometry using image analysis. Premature opening of vagina, cornification of vaginal epithelium, increase in uterine fresh weight, total uterine and endometrial area and uterine luminal epithelial cell height are taken as parameters for evaluation of estrogen agonistic activity in comparison to rats of vehicle control group (Table 6).
as §2

In data set [3] the test system is ovariectomized (OVX) female Sprague-Dawley rats. The experiment in a line: Anti-hyperlipidaemic activity: blood serum total cholesterol in OVX rats. The data set is classed as in vivo, rat. Particulars: days 1-30; for Total Cholesterol: blood serum. As for the experimental part:
Test Procedure for Evaluation of Anti-Hyperlipidaemic Activity:
The in vivo anti-hyperlipidaemic activity is evaluated in colony-bred adult (3-4 month old) female Sprague-Dawley rats or female retired breeder Sprague-Dawley rats ([…]; parity≧3). Animals are bilaterally ovariectomized (OVX) under light ether anesthesia and treated with the compound of the present invention, 17-alfa-ethynylestradiol (EE) or the vehicle once daily on days 1-30 post-ovariectomy (day 1: day of bilateral ovariectomy) by the oral route. One group consisting of females is sham operated and treated similarly with the vehicle. Animals of all the groups are autopsied 24 h after the last treatment. At autopsy, about 5 ml blood samples are collected by cardiac puncture from each rat under light ether anesthesia and serum is isolated and stored at −20° C. until analyzed for total cholesterol. The total cholesterol concentration is measured by a timed-end point method using a Beckman Synchron CX autoanalyser. In the reaction, cholesterol estrase hydrolyses cholesterol esters to free cholesterol and fatty acids. Free cholesterol is oxidized to cholestene-3-one and H2O2 by cholesterol oxidase. Peroxidase catalyses the reaction of H2O2 with 4-amino antipyrine and phenol to produce a colored quinoneimine product. Absorbance is recorded at 520 nm (Table 3).

The subject of data set [4] is chick fetal bones in culture. The experiment in a line: Inhibition of PTH-induced resorption of 45Ca from chick fetal bones in culture (antiresorptive activity in vitro). The data set is classed as cell-based. Particulars: for T/C Ratio: PTH-induced 45Ca resorption, 96 h culture. As for the experimental part: Test Procedure for Evaluation of Antiosteoporosis (Antiresorptive) Activity in Vitro:
Test solutions of the compounds of the present invention are prepared in appropriate solvents in concentration range of 5 millimolar to 400 millimolar, most preferably in concentrations of 20 millimolar. 5 μl of each concentration are used for evaluation of antiresorptive activity in vitro. In control experiments, 5 μl of appropriate solvent is used in lieu of test compound. Femur bones are isolated from chick embryos on day 11 post-ovulation. The adhering soft connective tissue is completely removed. Each femur bone is then placed in a drop of phosphate buffered saline (PBS) and is transferred to BGJb culture medium containing ^45CaCl2 and incubated for 2 h. Labeled femur bones are washed 2-3 times with PBS and transferred to BGJb medium containing parathyroid hormone and cultured for 96 h in the presence or absence of the compound of invention or the vehicle in BGJb medium. Contralateral femur of each fetus serves as corresponding control. Culture medium with the respective treatment in each well is changed after 48 h. On termination of the culture at 96 h, bones are transferred to 0.1 N HCl for 24 h. Radioactivity due to ^45Ca in the spent medium collected at 48 and 96 h of culture and HCl extract at 96 h of culture is quantified by Liquid Scintillation Spectrophotometer in 10 ml of the scintillation fluid. Bone resorbing activity is expressed as percentage of ^45Ca released into the culture medium and the effect of the compound of invention as percent of the corresponding contra-lateral control or T/C ratio as shown below:
Appropriate solvents are selected from solvents like water, normal saline, phosphate buffered saline, phosphate buffer, DMSO alone or in a suitable combination thereof.
It was devoid of any pos-coital antifertility and estrogenic activities in rats.

The next data set concerns MCF-7 cells. As to the kind of experiment: Antiproliferative/cytotoxic activity in cultured MCF-7 cells (SRB assay). Particulars: 48 h incubation.
The subject of data set [5] is immature OVX rats. As to the kind of experiment: Estrogen antagonistic activity: inhibition of EE-induced uterine weight gain in immature OVX rats. The data set is classed as in vivo, rat. Particulars: daily dose 10 mg/kg with 0.02 mg/kg 17-alfa-ethynylestradiol, 3 days. On the procedure:
Test Procedure for Evaluation of Estrogen Antagonistic Activity:
Twenty-one-day-old immature female rats are bilaterally ovariectomized under light ether anesthesia and after post-operative rest for 7 days, are randomized into different treatment groups. Each rat receives the compounds of the invention and 0.02 mg/kg dose of 17-alfa-ethynylestradiol in 10% ethanol-distilled water once daily for 3 consecutive days on days 28-30 of age. A separate group consisting of animals receiving only 17-alfa-ethynylestradiol (0.02 mg/kg) in 10% ethanol-distilled water for similar duration are used for comparison. At autopsy on day 31 of age, vaginal smear of each rat is taken and uterus is carefully excised, gently blotted, weighed and fixed for histology and histomorphometry using image analysis. Inhibition in 17-alfa-ethynylestradiol-induced premature opening of vagina, cornification of vaginal epithelium, increase in uterine fresh weight, total uterine and endometrial area and uterine luminal epithelial cell height are taken as parameters for evaluation of estrogen antagonistic activity (Table 8).

Regarding `C#C[C@]1(O)CC[C@H]2[C@@H]3CCc4cc(O)ccc4[C@H]3CC[C@@]21C` [EE, 17-alfa-ethynylestradiol, reference compound], the “Increase in BMD (g/cm^2): Percent of OVX + vehicle treatment group, Percent Increase” value is 16.1% in data set [1] (Femur Global), 13.5% in data set [1] (Femur Neck), 3.8% in data set [1] (Tibia Global) and 25.2% in data set [1] (Tibia proximal). In addition, the results for the “Endometrium Epithelial Cell Height” value with retired breeder OVX rats (daily dose 0.5 mg/kg) and in the data set on immature OVX rats [2] (daily dose 0.01 mg/kg) were 46.36 μm and 33.65 μm, respectively. The “Endometrium Total Area” value in the data set on retired breeder OVX rats (daily dose 0.5 mg/kg) turned out to be 4.07 mm^2; in the data set with immature OVX rats [2] (daily dose 0.01 mg/kg), 0.57 mm^2. Further, the “Increase in uterine weight: Percent of OVX + vehicle treatment group, Percent Increase” value in the data set on retired breeder OVX rats (daily dose 0.5 mg/kg) worked out at 260%; with immature OVX rats [2] (daily dose 0.01 mg/kg), 419%. The “Uterus Total Area” value in the data set on retired breeder OVX rats (daily dose 0.5 mg/kg) stood at 6.86 Mm^2; in the data set on immature OVX rats [2] (daily dose 0.01 mg/kg) it was 1.21 Mm^2. Also, in data set [3] (daily dose 0.50 mg/kg oral), the “Total Cholesterol” value is less than 5 mg/dL.
Turning to `CSc1ccc(C(=O)c2cccc3ccccc23)cc1` [Example 1, (4-Methylthiophenyl)-(naphth-1-yl)-ketone], the “T/C Ratio” value in data set [4] (25 μM) was found to be 0.77; in data set [4] (50 μM) it was 0.60; in data set [4] (100 μM), 0.44. Further, the “Increase in BMD (g/cm^2): Percent of OVX + vehicle treatment group, Percent Increase” value is recorded as 8% in data set [1] (Femur Global), 13% in data set [1] (Femur Neck), 3.7% in data set [1] (Tibia Global) and 13.8% in data set [1] (Tibia proximal). Further, the LC50 entry in the data set on MCF-7 cells is given as “Inactive”. Further, the “Endometrium Epithelial Cell Height” value came to 9.63 μm in the data set with retired breeder OVX rats (daily dose 10 mg/kg) and 7.16 μm in the data set with immature OVX rats [2] (daily dose 10 mg/kg). In addition, the “Endometrium Total Area” value is on record as 0.37 mm^2 with retired breeder OVX rats (daily dose 10 mg/kg) and 0.085 mm^2 in the data set on immature OVX rats [2] (daily dose 10 mg/kg). Further, the “Increase in uterine weight: Percent of OVX + vehicle treatment group, Percent Increase” value stood at 41% in the data set with retired breeder OVX rats (daily dose 10 mg/kg) and 16% in the data set on immature OVX rats [2] (daily dose 10 mg/kg). The “Uterus Total Area” value in the data set with retired breeder OVX rats (daily dose 10 mg/kg) amounted to 1.38 Mm^2; in the data set on immature OVX rats [2] (daily dose 10 mg/kg) it was 0.105 Mm^2. In addition, the “Total Cholesterol” value in data set [3] (daily dose 10 mg/kg oral) stood at 20.00 mg/dL. Moreover, the “% Change in blood serum total cholesterol concentration” value in data set [3] (daily dose 10 mg/kg oral) is 21.94%. The “Percent inhibition in EE induced uterine weight gain” value with immature OVX rats [5] was found to be 32%.
Take `CS(=O)(=O)c1ccc(C(=O)c2cccc3ccccc23)cc1` [Example 2, (4-Methylsulfonylphenyl)-naphth-1-yl-ketone]: the melting point turned out to be 150 °C.
`CSc1ccc(C(O)c2cccc3ccccc23)cc1` (stereo not drawn) [Example 3, (4-Methylthiophenyl)-naphth-1-yl-carbinol] displayed a melting point of 80 °C. Besides, the “T/C Ratio” value in data set [4] (50 μM) is given as 1.41.
`CS(=O)(=O)c1ccc(C(O)c2cccc3ccccc23)cc1` (stereo not drawn) [Example 4, (4-Methylsulfonylphenyl)-naphth-1-yl-carbinol] yielded a melting point of 160 °C. The “T/C Ratio” value in data set [4] (100 μM) is 0.97.
Compound `CS(=O)(=O)c1ccc(C(=O)c2ccc3ccccc3c2)cc1` [Example 8, (4-Methylsulfonylphenyl)-naphth-2-yl-ketone] had a melting point of 160 °C.
`CS(=O)(=O)c1ccc(C(O)c2ccc3ccccc3c2)cc1` (stereo not drawn) [Example 9, (4-Methylsulfonylphenyl)-naphth-2-yl-carbinol]: the melting point is 100 °C. Also, in data set [4] (100 μM), the “T/C Ratio” value came to 1.15.
With `CCSc1ccc(C(=O)c2cccc3ccccc23)cc1` [Example 11, (4-Ethylthiophenyl)-naphth-1-yl-ketone], in data set [4] (100 μM), the “T/C Ratio” value is recorded as 0.77.
With `O=C(c1ccc(OCCN2CCCCC2)cc1)c1c(-c2ccc(O)cc2)sc2cc(O)ccc12` [Raloxifene, reference compound], the T/C in data set [4] (chick foetal bone assay, concentration not stated) is on record as 0.6.
